From ChEMBL document CHEMBL1136995, “2,6-Diphenylthiazolo[3,2-b][1,2,4]triazoles as telomeric G-quadruplex stabilizers” (Bioorg Med Chem Lett, 2009)
Active and inactive are the calls of the source. The calls are words filed in the database; no cut-off is given here.

Legend:
Assay type in all cases: nucleic-acid assay
Nucleic Acid [1] = assay: Binding affinity to G-quadruplex F21T DNA assessed as change in melting temperature at 0.6 uM under K+ ionic conditions by FRET assay
Nucleic Acid [2] = assay: Binding affinity to G-quadruplex F21T DNA assessed as change in melting temperature at 0.8 uM under K+ ionic conditions by FRET assay
Nucleic Acid [3] = assay: Binding affinity to G-quadruplex F21T DNA assessed as change in melting temperature at 3 uM under K+ ionic conditions by FRET assay
Nucleic Acid [4] = assay: Binding affinity to G-quadruplex F21T DNA assessed as change in melting temperature at 3 uM under Na+ ionic conditions by FRET assay
Nucleic Acid [5] = assay: Binding affinity to G-quadruplex F21T DNA assessed as quadruplex stabilization at 3 uM by FRET assay in presence of duplex ds26 oligonucleotide
Nucleic Acid [6] = assay: Binding affinity to G-quadruplex F21T DNA assessed as change in melting temperature at 0.3 uM under K+ ionic conditions by FRET assay
Nucleic Acid [7] = assay: Binding affinity to G-quadruplex F21T DNA assessed as change in melting temperature at 0.1 uM under K+ ionic conditions by FRET assay

| Structure (SMILES) | ΔTm (Nucleic Acid [3]) [°C] | ΔTm (Nucleic Acid [4]) [°C] | Activity (Nucleic Acid [5]) | also measured |
| --- | --- | --- | --- | --- |
| Cc1oc2nc1-c1nc(co1)-c1nc(co1)-c1nc(co1)-c1nc(co1)-c1nc(co1)C1=NC(CS1)c1nc-2c(C)o1 (stereo not drawn) | – | – | – | ΔTm (Nucleic Acid [1]): 10 °C; ΔTm (Nucleic Acid [2]): 15 °C |
| CCOC(=O)c1ccc(-c2csc3nc(-c4ccc(OCc5ccccc5)cc4)nn23)cc1 | < 1 | < 1 | – | – |
| Oc1ccc(-c2nc3scc(-c4ccc(O)cc4)n3n2)cc1 | < 1 | < 1 | – | – |
| O=C(NCCN1CCCCC1)c1ccc(-c2csc3nc(-c4ccc(OCCN5CCCCC5)cc4)nn23)cc1 | 11.2 | 5 | Active | – |
| c1ccc(COc2ccc(-c3nc4scc(-c5ccc(OCc6ccccc6)cc5)n4n3)cc2)cc1 | < 1 | < 1 | – | – |
| c1cc(-c2nc3scc(-c4ccc(OCCN5CCCCC5)cc4)n3n2)ccc1OCCN1CCCCC1 | 8.7 | 2.1 | Active | – |
| NC(=O)c1cccc(C(N)=O)n1 | – | – | – | ΔTm (Nucleic Acid [6]): 15 °C; ΔTm (Nucleic Acid [7]): 10 °C |

Second part, led by results:

| ΔTm (Nucleic Acid [3]) [°C] | ΔTm (Nucleic Acid [4]) [°C] | Activity (Nucleic Acid [5]) | Structure (SMILES) | also measured |
| --- | --- | --- | --- | --- |
| 2.7 | < 1 | – | O=C(NCCN1CCCCC1)c1ccc(-c2csc3nc(-c4ccc(OCc5ccccc5)cc4)nn23)cc1 | – |
| 1.8 | < 1 | – | O=C(NCCN1CCCCC1)c1ccc(-c2csc3nc(-c4ccc(O)cc4)nn23)cc1 | – |
| 14.6 | 5.9 | inactive | O=C(NCCN1CCCCC1)c1ccc(-c2csc3nc(-c4ccc(OCCN5CCCC5)cc4)nn23)cc1 | – |
